The test system of one test is Aβ42. Kind of test: Amyloidβ peptide release (Aβ42) assay, AlphaLisa on supernatant of APPswe-HEK cells. In kind it is cell-based. To be noted: Homo sapiens, 24 hours incubation with compound, read-out: Ab42 IC50 Ranges. As to the method: (§1) Amyloidβ Peptide Release (Aβ42 & AβTotal) Assay to Determine IC50 Values.
(§2) Amyloidβ peptide release (Aβ42 & AβTotal) assay are performed in 384 well microtiter plates (Perkin Elmer AlphaPlate #6008350) in a final volume of 20 μl, using supernatant coming from APPswe-HEK cells exposed to test compounds. Compounds are dissolved in and diluted in 100% DMSO and incubated with APPswe-HEK cells for 24 hours a 37° C. in 5% CO2. The supernatant from APPswe-HEK cells are mixed with antibodies: for Aβ42 detection: AlphaLisa Amyloid β 1-42 Kit (Perkin Elmer AL203L) Anti-Amyloid β1-42-specific antibody acceptor beads, biotinylated anti-Amyloid “β1-42” antibody and streptavidin (SA) donor beads diluted in AlphaLisa buffer (to the instructions of the supplier). For Aβ total detection: Custom Anti-Amyloid βtotal acceptor beads (6E10 acceptor beads), biotinylated anti-Amyloid “β1-42” antibody (Perkin Elmer AL203L) and streptavidin (SA) donor beads diluted in AlphaLisa buffer (to the instructions of the supplier). After addition of supernatant to the antibody mix, the assay is incubated 4 h and 30 minutes. AmyloidP peptide release (Aβ42 & AβTotal) is measured with a Pherastar FS (BMG) multimode reader using the alphascreen module.

For a further test, the system named is AβTotal. In words: Amyloidβ peptide release (AβTotal) assay, AlphaLisa on supernatant of APPswe-HEK cells. The test is classed as cell-based, human. The conditions noted are these: 24 hours, ratio Abtot versus Ab42. As to the method:
as §1, §2
On the technique in general: In Alpha technology, singlet oxygen from a donor bead excites a nearby acceptor bead.

Where only a bound is given, the exact number is not on record here.

For `COc1cc(NC(=O)c2nnn3c2CCCC3c2cccc(C(F)(F)F)c2)ccc1-n1cnc(C)c1` (stereo not drawn) [Example 22, N-(3-methoxy-4-(4-methyl-1H-imidazol-1-yl)phenyl)-7-(3-(trifluoromethyl)phenyl)-4,5,6,7-tetrahydro-[1,2,3]triazolo[1,5-a]pyridine-3-carboxamide], the 50% inhibitory concentration (IC50) in the test with Aβ42 was in the range of 150 to 500 nM. Further, the Abtot/Ab42 selectivity ranges result with AβTotal was “b (b: 100 fold > selectivity ≧ 50 fold)”.

`COc1cc(C(=O)Nc2nnn3c2CCCC3c2ccc(F)cc2)ccc1-n1cnc(C)c1` (stereo not drawn) [Example 43, N-(7-(4-fluorophenyl)-4,5,6,7-tetrahydro-[1,2,3]triazolo[1,5-a]pyridin-3-yl)-3-methoxy-4-(4-methyl-1H-imidazol-1-yl)benzamide]: the 50% inhibitory concentration (IC50) with Aβ42 is less than 1000 nM. Further, the Abtot/Ab42 selectivity ranges entry in the test with AβTotal was “a (a: selectivity ≧ 100 fold)”.

On to `COc1cc(NC(=O)c2nnn3c2CCCC3c2ccc(Cl)cc2)ccc1-n1cnc(C)c1` (stereo not drawn) [Example 12, 7-(4-chlorophenyl)-N-(3-methoxy-4-(4-methyl-1H-imidazol-1-yl)phenyl)-4,5,6,7-tetrahydro-[1,2,3]triazolo[1,5-a]pyridine-3-carboxamide], for which, in the test on Aβ42, the concentration for half-maximal inhibition (IC50) was not above 150 nM. In addition, the Abtot/Ab42 selectivity ranges result in the test on AβTotal is given as “b (b: 100 fold > selectivity ≧ 50 fold)”.

As for `COc1nc(NC(=O)c2nnn3c2CCC3c2ccc(Cl)cc2)ccc1-n1cnc(C)c1` (stereo not drawn) [Example 29, 6-(4-chlorophenyl)-N-(6-methoxy-5-(4-methyl-1H-imidazol-1-yl)pyridin-2-yl)-5,6-dihydro-4H-pyrrolo[1,2-c][1,2,3]triazole-3-carboxamide], in the test on Aβ42, the IC50 is less than 1000 nM. For the same molecule, in the test on AβTotal, the Abtot/Ab42 selectivity ranges result is reported as “a (a: selectivity ≧ 100 fold)”.

Regarding `COc1cc(NC(=O)c2nnn3c2CCCC3c2ccc(F)cc2)ccc1-n1cnc(C)c1` (stereo not drawn) [Example 20, 7-(4-fluorophenyl)-N-(3-methoxy-4-(4-methyl-1H-imidazol-1-yl)phenyl)-4,5,6,7-tetrahydro-[1,2,3]triazolo[1,5-a]pyridine-3-carboxamide], in the test with Aβ42, the half-inhibitory concentration (IC50) was 150 to 500 nM. The Abtot/Ab42 selectivity ranges entry in the test with AβTotal is “b (b: 100 fold > selectivity ≧ 50 fold)”.

As to `COc1cc(C(=O)Nc2nnn3c2CCC3c2ccc(F)cc2)ccc1-n1cnc(C)c1` (stereo not drawn) [Example 46, N-(6-(4-fluorophenyl)-5,6-dihydro-4H-pyrrolo[1,2-c][1,2,3]triazol-3-yl)-3-methoxy-4-(4-methyl-1H-imidazol-1-yl)benzamide], in the test on Aβ42, the IC50 lay within 500 to 1000 nM. Moreover, the Abtot/Ab42 selectivity ranges entry with AβTotal is reported as “c (c: 50 fold > selectivity ≧ 10 fold)”.

Turning to `Cc1cn(-c2ccc(NC(=O)c3nnn4c3CCC4c3ccc(Cl)cc3)cc2C#N)cn1` (stereo not drawn) [Example 27, 6-(4-chlorophenyl)-N-(3-cyano-4-(4-methyl-1H-imidazol-1-yl)phenyl)-5,6-dihydro-4H-pyrrolo[1,2-c][1,2,3]triazole-3-carboxamide], the IC50 with Aβ42 lay within 150 to 500 nM. Besides, in the test on AβTotal, the Abtot/Ab42 selectivity ranges entry was “c (c: 50 fold > selectivity ≧ 10 fold)”.

Regarding `Cc1cc(-c2ccc(NC(=O)c3nnn4c3CCCC4c3ccc(F)cc3)cc2)ccn1` (stereo not drawn) [Example 21, 7-(4-fluorophenyl)-N-(4-(2-methylpyridin-4-yl)phenyl)-4,5,6,7-tetrahydro-[1,2,3]triazolo[1,5-a]pyridine-3-carboxamide], the half-inhibitory concentration (IC50) in the test on Aβ42 was less than 1000 nM. In the test on AβTotal, the Abtot/Ab42 selectivity ranges entry was “d (d: 10 fold > selectivity)”.

As for `COc1cc(NC(=O)c2nnn3c2CC[C@H]3c2ccc(Cl)cc2)ccc1-n1cnc(C)c1` [Example 31, (S)-6-(4-chlorophenyl)-N-(3-methoxy-4-(4-methyl-1H-imidazol-1-yl)phenyl)-5,6-dihydro-4H-pyrrolo[1,2-c][1,2,3]triazole-3-carboxamide], the IC50 in the test with Aβ42 fell in the range of 150 to 500 nM. Also, in the test with AβTotal, the Abtot/Ab42 selectivity ranges entry is “c (c: 50 fold > selectivity ≧ 10 fold)”.

With `Cc1cn(-c2ccc(Nc3nnn4c3CCCC4c3ccc(F)cc3Cl)cc2F)cn1` (stereo not drawn) [Example 3, 7-(2-chloro-4-fluorophenyl)-N-(3-fluoro-4-(4-methyl-1H-imidazol-1-yl)phenyl)-4,5,6,7-tetrahydro-[1,2,3]triazolo[1,5-a]pyridin-3-amine], the IC50 in the test with Aβ42 lay within 150 to 500 nM. Also, the Abtot/Ab42 selectivity ranges result in the test with AβTotal is given as “b (b: 100 fold > selectivity ≧ 50 fold)”.

For `COc1cc(NC(=O)c2nnn3c2CCC3c2ccc(Cl)c(Cl)c2)ccc1-n1cnc(C)c1` (stereo not drawn) [Example 34, 6-(3,4-dichlorophenyl)-N-(3-methoxy-4-(4-methyl-1H-imidazol-1-yl)phenyl)-5,6-dihydro-4H-pyrrolo[1,2-c][1,2,3]triazole-3-carboxamide], the concentration for half-maximal inhibition (IC50) with Aβ42 is not above 150 nM. Besides, in the test on AβTotal, the Abtot/Ab42 selectivity ranges entry is reported as “a (a: selectivity ≧ 100 fold)”.

On to `Cc1cc(-c2ccc(Nc3nnn4c3CCC4c3ccc(Cl)cc3)cc2)ccn1` (stereo not drawn) [Example 9], for which, in the test with Aβ42, the IC50 lay within 150 to 500 nM. Further, the Abtot/Ab42 selectivity ranges entry in the test with AβTotal is “a (a: selectivity ≧ 100 fold)”.

As for `COc1cc(C(=O)Nc2nnn3c2CCCC3c2ccc(Cl)c(Cl)c2)ccc1-n1cnc(C)c1` (stereo not drawn) [Example 41, N-(7-(3,4-dichlorophenyl)-4,5,6,7-tetrahydro-[1,2,3]triazolo[1,5-a]pyridin-3-yl)-3-methoxy-4-(4-methyl-1H-imidazol-1-yl)benzamide], the IC50 with Aβ42 lay within 150 to 500 nM. Further, the Abtot/Ab42 selectivity ranges entry with AβTotal was “b (b: 100 fold > selectivity ≧ 50 fold)”.

Turning to `COc1cc(NC(=O)c2nnn3c2CCCC3c2ccc(Cl)cc2)ccc1-c1ccnc(C)c1` (stereo not drawn) [Example 16, 7-(4-chlorophenyl)-N-(3-methoxy-4-(2-methylpyridin-4-yl)phenyl)-4,5,6,7-tetrahydro-[1,2,3]triazolo[1,5-a]pyridine-3-carboxamide], the concentration for half-maximal inhibition (IC50) with Aβ42 is 150 to 500 nM. For the same molecule, the Abtot/Ab42 selectivity ranges result in the test on AβTotal is reported as “c (c: 50 fold > selectivity ≧ 10 fold)”.

For the molecule `COc1cc(NC(=O)c2nnn3c2CCC3c2ccccc2Cl)ccc1-n1cnc(C)c1` (stereo not drawn) [Example 32, 6-(2-chlorophenyl)-N-(3-methoxy-4-(4-methyl-1H-imidazol-1-yl)phenyl)-5,6-dihydro-4H-pyrrolo[1,2-c][1,2,3]triazole-3-carboxamide], the concentration for half-maximal inhibition (IC50) in the test on Aβ42 is not above 150 nM. Besides, in the test with AβTotal, the Abtot/Ab42 selectivity ranges entry is “b (b: 100 fold > selectivity ≧ 50 fold)”.

As to `COc1cc(C(=O)Nc2nnn3c2CCCC3c2ccc(Cl)cc2)ccc1-n1cnc(C)c1` (stereo not drawn) [Example 40, N-(7-(4-chlorophenyl)-4,5,6,7-tetrahydro-[1,2,3]triazolo[1,5-a]pyridin-3-yl)-3-methoxy-4-(4-methyl-1H-imidazol-1-yl)benzamide], the IC50 with Aβ42 was 150 to 500 nM. Moreover, in the test with AβTotal, the Abtot/Ab42 selectivity ranges result is on record as “b (b: 100 fold > selectivity ≧ 50 fold)”.

In the case of `COc1cc(NC(=O)c2nnn3c2COCC3c2ccc(Cl)cc2)ccc1-n1cnc(C)c1` (stereo not drawn) [Example 38, 7-(4-chlorophenyl)-N-(3-methoxy-4-(4-methyl-1H-imidazol-1-yl)phenyl)-6,7-dihydro-4H-[1,2,3]triazolo[5,1-c][1,4]oxazine-3-carboxamide], the IC50 in the test on Aβ42 fell in the range of 150 to 500 nM. The Abtot/Ab42 selectivity ranges entry in the test on AβTotal was “b (b: 100 fold > selectivity ≧ 50 fold)”.

Turning to `COc1cc(C(=O)Nc2nnn3c2CCC3c2ccc(F)cc2)ccc1-c1ccnc(C)c1` (stereo not drawn) [Example 47, N-(6-(4-fluorophenyl)-5,-dihydro-4H-pyrrolo[1,2-c][1,2,3]triazol-3-yl)-3-methoxy-4-(2-methylpyridin-4-yl)benzamide], in the test on Aβ42, the IC50 was less than 1000 nM. In the test on AβTotal, the Abtot/Ab42 selectivity ranges result is recorded as “d (d: 10 fold > selectivity)”.

Regarding `COc1cc(NC(=O)c2nnn3c2CCC3c2ccc(Cl)cc2)ccc1-n1cnc(C)c1` (stereo not drawn) [Example 28, 6-(4-chlorophenyl)-N-(3-methoxy-4-(4-methyl-1H-imidazol-1-yl)phenyl)-5,6-dihydro-4H-pyrrolo[1,2-c][1,2,3]triazole-3-carboxamide], in the test on Aβ42, the IC50 was not above 150 nM. In addition, the Abtot/Ab42 selectivity ranges entry with AβTotal is recorded as “b (b: 100 fold > selectivity ≧ 50 fold)”.

For the molecule `COc1cc(NC(=O)c2nnn3c2CC[C@@H]3c2ccc(Cl)cc2)ccc1-n1cnc(C)c1` [Example 30, (R)-6-(4-chlorophenyl)-N-(3-methoxy-4-(4-methyl-1H-imidazol-1-yl)phenyl)-5,6-dihydro-4H-pyrrolo[1,2-c][1,2,3]triazole-3-carboxamide], in the test on Aβ42, the IC50 is not above 150 nM. Also, the Abtot/Ab42 selectivity ranges entry in the test on AβTotal is given as “b (b: 100 fold > selectivity ≧ 50 fold)”.

On to `COc1cc(C(=O)Nc2nnn3c2CCCC3c2cccc(C(F)(F)F)c2)ccc1-n1cnc(C)c1` (stereo not drawn) [Example 42, 3-methoxy-4-(4-methyl-1H-imidazol-1-yl)-N-(7-(3-(trifluoromethyl)phenyl)-4,5,6,7-tetrahydro-[1,2,3]triazolo[1,5-a]pyridin-3-yl)benzamide], for which the IC50 in the test with Aβ42 is 500 to 1000 nM. Besides, the Abtot/Ab42 selectivity ranges result with AβTotal was “c (c: 50 fold > selectivity ≧ 10 fold)”.

With `COc1cc(C(=O)Nc2nnn3c2CCC3c2ccc(Cl)c(Cl)c2)ccc1-n1cnc(C)c1` (stereo not drawn) [Example 45], in the test with Aβ42, the IC50 was in the range of 150 to 500 nM. Besides, the Abtot/Ab42 selectivity ranges entry in the test on AβTotal was “c (c: 50 fold > selectivity ≧ 10 fold)”.

On to `COc1cc(C(=O)Nc2nnn3c2CCCC3c2ccc(F)cc2Cl)ccc1-n1cnc(C)c1` (stereo not drawn) [Example 39, N-(7-(2-chloro-4-fluorophenyl)-4,5,6,7-tetrahydro-[1,2,3]triazolo[1,5-a]pyridin-3-yl)-3-methoxy-4-(4-methyl-1H-imidazol-1-yl)benzamide], for which the IC50 in the test with Aβ42 was in the range of 150 to 500 nM. Besides, the Abtot/Ab42 selectivity ranges entry with AβTotal is “b (b: 100 fold > selectivity ≧ 50 fold)”.

Regarding `COc1cc(Nc2nnn3c2CCCC3c2ccccc2C(F)(F)F)ccc1-n1cnc(C)c1` (stereo not drawn) [Example 2], the concentration for half-maximal inhibition (IC50) in the test with Aβ42 was 150 to 500 nM. In the test on AβTotal, the Abtot/Ab42 selectivity ranges entry is recorded as “a (a: selectivity ≧ 100 fold)”.

By IC50 is commonly meant the concentration needed to halve the response being measured.

The values are drawn from US9527853B2, “Fused triazole derivatives as gamma secretase modulators” (Ares Trading S.A., priority 2012, dated 2016).
